Source: US7186743B2, “Substituted pyrazolyl compounds for the treatment of inflammation” (Pharmacia Corporation, priority 2001, dated 2007)
Where a name gives a salt, the structure may show the parent alone. Read-outs that look alike come from different tables or passages of the source.

Target: T1, IKK2 (Homo sapiens, UniProt O14920)
T1 construct: made in house; host or cells: insect cells (baculovirus, pFastBac; SF9)
T1 sequence (O14920 1-756): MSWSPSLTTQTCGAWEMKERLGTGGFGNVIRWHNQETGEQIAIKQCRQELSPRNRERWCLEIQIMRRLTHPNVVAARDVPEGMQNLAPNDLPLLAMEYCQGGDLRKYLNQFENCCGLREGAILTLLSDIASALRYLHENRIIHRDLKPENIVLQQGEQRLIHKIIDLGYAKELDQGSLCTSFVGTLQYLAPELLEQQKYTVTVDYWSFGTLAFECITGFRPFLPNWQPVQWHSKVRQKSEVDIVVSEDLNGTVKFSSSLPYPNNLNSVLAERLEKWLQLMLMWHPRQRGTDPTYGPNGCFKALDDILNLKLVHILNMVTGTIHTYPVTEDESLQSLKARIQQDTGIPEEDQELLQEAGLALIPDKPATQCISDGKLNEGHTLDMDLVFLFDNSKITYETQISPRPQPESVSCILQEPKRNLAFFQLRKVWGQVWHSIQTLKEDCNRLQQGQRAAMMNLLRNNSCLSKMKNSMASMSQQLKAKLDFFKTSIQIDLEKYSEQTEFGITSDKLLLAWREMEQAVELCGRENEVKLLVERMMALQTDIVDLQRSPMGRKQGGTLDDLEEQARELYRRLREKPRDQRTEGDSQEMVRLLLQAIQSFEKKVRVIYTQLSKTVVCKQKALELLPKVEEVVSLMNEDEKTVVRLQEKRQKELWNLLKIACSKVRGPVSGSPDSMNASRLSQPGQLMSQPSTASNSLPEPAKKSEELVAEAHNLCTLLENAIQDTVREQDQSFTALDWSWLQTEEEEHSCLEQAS
Assay: IKKβ Resin Enzyme Assay (IKK2 resin)
Type: biochemical
Text: cDNAs of human IKK1 and IKK2 were amplified by reverse transcriptase-polymerase chain reaction from human placental RNA (Clonetech). hIKK1 was subcloned into pFastBac HTa (Life Technologies) and expressed as N-terminal His6-tagged fusion protein. The hIKK2 cDNA was amplified using a reverse oligonucleotide primer which incorporated the peptide sequence for a FLAG-epitope tag at the C-terminus of the IKK2 coding region ([…]). The hIKK2:FLAG cDNA was subcloned into the baculovirus vector pFastBac. The rhIKK2 ([…]) mutant was constructed in the same vector used for wild type rhIKK2 using a QuikChange™ mutagenesis kit (Stratagene). Viral stocks of each construct were used to infect insect cells grown in 40 L suspension culture. […] Cell lysates were stored at −80° C. until purification of the recombinant proteins was undertaken as described below.
A 10-liter culture of baculovirus-expressing IKK2 tagged with FLAG peptide was centrifuged and the cell pellet (MOI=0.1 and I=72 hrs) was re-suspended in buffer A. These cells were microfluidized, and centrifuged at 100,000×g for 45 min. Supernatant was passed over a G-25 column equilibrated with Buffer A. Protein peak was collected and incubated with anti-FLAG affinity resin on a rotator overnight in buffer B. The resin was washed in batch with 10–15 bed volumes of buffer C. Washed resin was poured into a column and rhIKK2 homodimer was eluted using 5 bed volumes of buffer B containing FLAG peptide. 5 mM DTT, 0.1% NP-40 and BSA (concentrated to 0.1% in final amount) was added to the eluted enzyme before concentrating in using an Amicon membrane with a molecular weight cut-off of 30 kDa. Enzyme was aliquoted and stored at −80° C.
IKKβ kinase activity was measured using a biotinylated IκBα peptide ([…]32-Gly-Leu-Asp-Ser36-Met-Lys-Asp-Glu-Glu) (American Peptide Co.). […] ATP (Amersham) (about 1×10^5 cpm), 1 μM ATP (Sigma), 1 mM DTT (Sigma), 2 mM MgCl2 (Sigma), 2 mM MnCl2 (Sigma), 10 mM NaF (Sigma), 25 mM Hepes (Sigma) buffer, pH 7.6 and 20 μl enzyme solution and 10 ul inhibitor in a final volume of 50 μl. After incubation at 25° C. for 30 min, 150 μl resin (Dowex anion-exchange resin AG1X8 200–400 mesh) in 900 mM formate, pH 3.0 was added to each well to stop the reaction. Resin was allowed to settle for one hour and 50 ul of supernatant was removed to a Micolite-2 flat bottom plate (Dynex). 150 μl of scintillation fluid (Microscint 40) (Packard) was added to each well. Incorporation of [γ-^33P] ATP was measured using a Top-Count NXT (Packard).

[1] = Table 2, read-out: IKK Resin IC50
[2] = Table 4, read-out: IKK2 Resin IC50
[3] = Table 14, read-out: IKK2 Resin IC50
[4] = Table 6, read-out: IKK2 Resin IC 50
[5] = Table 3, read-out: IKK Resin IC50

CN1CCN(c2ccc(Cl)c(C(=O)Nc3ccc4c(c3)-c3c(c(C(N)=O)nn3-c3ccc(F)cc3)CC4)n2)CC1 [Example 256, 8-({[3-chloro-6-(4-methylpiperazin-1-yl)pyridin-2-yl]carbonyl}amino)-1-(4-fluorophenyl)-4,5-dihydro-1H-benzo[g]indazole-3-carboxamide] showed an IC50 (Table 7, read-out: IKK2 Resin IC50) of no more than 1000 nM.

Compound CS(=O)(=O)c1ccc(-n2nc(C(N)=O)c3c2-c2cc(NC(=O)c4ccccc4Cl)ccc2CC3)nc1 [Example 367, 8-[(2-chlorobenzoyl)amino]-1-[5-(methylsulfonyl)pyridin-2-yl]-4,5-dihydro-1H-benzo[g]indazole-3-carboxamide] has an IC50 (read-out: IKK-2 resin IC50) of no more than 1000 nM.

Compound CS(=O)(=O)c1ccc(-n2nc(C(N)=O)c3c2-c2cc(NC(=O)c4cccnc4Cl)ccc2CC3)cc1 [Example 98, 8-{[(2-chloropyridin-3-yl)carbonyl]amino}-1-[4-(methylsulfonyl)phenyl]-4,5-dihydro-1H-benzo[g]indazole-3-carboxamide] has an IC50 [1] of no more than 1000 nM.

NC(=O)c1nn(-c2ccc3c(c2)OCO3)c2c1CCc1ccc(NC(=O)c3ccccc3Cl)cc1-2 [Example 165, 1-(1,3-benzodioxol-5-yl)-8-[(2-chlorobenzoyl)amino]-4,5-dihydro-1H-benzo[g]indazole-3-carboxamide] gave an IC50 [2] of no more than 1000 nM.

CS(=O)(=O)c1ccc(-n2nc(C(N)=O)c3c2-c2cc(NC(=O)c4ccccc4Cl)ccc2CC3)cn1 [Example 368, 8-[(2-chlorobenzoyl)amino]-1-[6-(methylsulfonyl)pyridin-3-yl]-4,5-dihydro-1H-benzo[g]indazole-3-carboxamide] was tested, and the IC50 (read-out: IKK-2 resin IC50) was no more than 1000 nM.

With CCS(=O)(=O)c1ccc(-n2nc(C(N)=O)c3c2-c2cc(NC(=O)c4cccnc4Cl)ccc2CC3)cc1 [Example 396, 8-{[(2-chloropyridin-3-yl)carbonyl]amino}-1-[4-(ethylsulfonyl)phenyl]-4,5-dihydro-1H-benzo[g]indazole-3-carboxamide] the IC50 (Table 18, read-out: IKK2 Resin IC50) was no more than 1000 nM.

NC(=O)c1nn(-c2ccc(F)c(F)c2)c2c1CCc1ccc(NC(=O)c3cccnc3Cl)cc1-2 [Example 364, 8-{[(2-chloropyridin-3-yl)carbonyl]amino}-1-(3,4-difluorophenyl)-4,5-dihydro-1H-benzo[g]indazole-3-carboxamide] was tested, and the IC50 [3] was no more than 1000 nM.

Work on CNS(=O)(=O)c1ccc(-n2nc(C(N)=O)c3c2-c2cc(NC(=O)c4ccccc4Cl)ccc2CC3)cc1 [Example 422, 8-[(2-chlorobenzoyl)amino]-1-{4-[(methylamino)sulfonyl]phenyl}-4,5-dihydro-1H-benzo[g]indazole-3-carboxamide] yielded an IC50 (read-out: IKK-2 resin IC50) of no more than 1000 nM.

N#Cc1ccc(-n2nc(C(N)=O)c3c2-c2cc(NC(=O)c4ccccc4Cl)ccc2CC3)cc1 [Example 369, 8-[(2-chlorobenzoyl)amino]-1-(4-cyanophenyl)-4,5-dihydro-1H-benzo[g]indazole-3-carboxamide] showed an IC50 (read-out: IKK-2 resin IC50) of no more than 1000 nM.

Work on COc1ccc(C(=O)Nc2ccc3c(c2)-c2c(c(C(N)=O)nn2-c2ccc(F)cc2)CC3)c(Cl)c1 [Example 233, 8-[(2-chloro-4-methoxybenzoyl)amino]-1-(4-fluorophenyl)-4,5-dihydro-1H-benzo[g]indazole-3-carboxamide] yielded an IC50 [4] of no more than 1000 nM.

For CS(=O)(=O)c1ccc(-n2nc(C(N)=O)c3c2-c2cc(NC(=O)c4cc5c(cc4Cl)OCO5)ccc2CC3)cc1 [Example 125, 8-{[(6-chloro-1,3-benzodioxol-5-yl)carbonyl]amino}-1-[4-(methylsulfonyl)phenyl]-4,5-dihydro-1H-benzo[g]indazole-3-carboxamide], the IC50 [1] was no more than 1000 nM.

For CS(=O)(=O)c1ccc(-n2nc(C(N)=O)c3c2-c2cc(NC(=O)c4ccc([N+](=O)[O-])cc4Cl)ccc2CC3)cc1 [Example 146, 8-[(2-chloro-4-nitrobenzoyl)amino]-1-[4-(methylsulfonyl)phenyl]-4,5-dihydro-1H-benzo[g]indazole-3-carboxamide], the IC50 [5] was no more than 1000 nM.

CC(=O)Nc1ccc(-n2nc(C(N)=O)c3c2-c2cc(NC(=O)c4ccccc4Cl)ccc2CC3)cc1 [Example 371, 1-[4-(acetylamino)phenyl]-8-[(2-chlorobenzoyl)amino]-4,5-dihydro-1H-benzo[g]indazole-3-carboxamide] gave an IC50 (Table 15, read-out: IKK2 Resin IC50) of no more than 1000 nM.

With CSc1ccc(-n2nc(C(N)=O)c3c2-c2cc(NC(=O)c4cc(N)ccc4Cl)ccc2CC3)cc1 [Example 414, 8-[(5-amino-2-chlorobenzoyl)amino]-1-[4-(methylthio)phenyl]-4,5-dihydro-1H-benzo[g]indazole-3-carboxamide hydrochloride] the IC50 (Table 19, read-out: IKK2 Resin IC50) was no more than 1000 nM.

For NC(=O)c1nn(-c2ccc3c(c2)OCO3)c2c1CCc1ccc(NC(=O)c3ccc(F)cc3Cl)cc1-2 [Example 164, 1-(1,3-benzodioxol-5-yl)-8-[(2-chloro-4-fluorobenzoyl)amino]-4,5-dihydro-1H-benzo[g]indazole-3-carboxamide], the IC50 [2] was no more than 1000 nM.

For CNC(=O)/C=C/c1ccc(-n2nc(C(N)=O)c3c2-c2cc(NC(=O)c4ccccc4Cl)ccc2CC3)cc1 [Example 311, 8-[(2-chlorobenzoyl)amino]-1-{4-[(1E)-3-(methylamino)-3-oxoprop-1-enyl]phenyl}-4,5-dihydro-1H-benzo[g]indazole-3-carboxamide], the IC50 (Table 12, read-out: IKK2 Resin IC50) was no more than 1000 nM.

CS(=O)(=O)c1ccc(-n2nc(C(N)=O)c3c2-c2cc(NC(=O)c4ccccc4Cl)ccc2CC3)cc1 [Example 95, 8-[(2-chlorobenzoyl)animo]-1-[4-(methylsulfonyl)phenyl]-4,5-dihydro-1H-benzo[g]indazole-3-carboxamide] was tested, and the IC50 [1] was no more than 1000 nM.

NC(=O)c1nn(-c2ccccc2)c2c1CCc1ccc(NC(=O)c3ccncc3Cl)cc1-2 [Example 331, 8-[(3-chloroisonicotinoyl)amino]-1-phenyl-4,5-dihydro-1H-benzo[g]indazole-3-carboxamide] showed an IC50 [3] of no more than 1000 nM.

With C#CCN(CC#C)S(=O)(=O)c1ccc(-n2nc(C(N)=O)c3c2-c2cc(N)ccc2CC3)cc1 [Example 425, 8-amino-1-{4-[(diprop-2-ynylamino)sulfonyl]phenyl}-4,5-dihydro-1H-benzo[g]indazole-3-carboxamide] the IC50 (Table 21, read-out: IKK2 Resin IC50) was no more than 1000 nM.

Work on COc1ccc(C(=O)Nc2ccc3c(c2)-c2c(c(C(N)=O)nn2-c2ccc(S(C)(=O)=O)cc2)CC3)cc1 [Example 143, 8-[(4-methoxybenzoyl)amino]-1-[4-(methylsulfonyl)phenyl]-4,5-dihydro-1H-benzo[g]indazole-3-carboxamide] yielded an IC50 [5] of no more than 1000 nM.

For COc1ccc([N+](=O)[O-])c(C(=O)Nc2ccc3c(c2)-c2c(c(C(N)=O)nn2-c2ccc(S(C)(=O)=O)cc2)CC3)c1 [Example 147, 8-[(5-methoxy-2-nitrobenzoyl)amino]-1-[4-(methylsulfonyl)phenyl]-4,5-dihydro-1H-benzo[g]indazole-3-carboxamide], the IC50 [5] was no more than 1000 nM.

CN(C)c1ccc(Cl)c(C(=O)Nc2ccc3c(c2)-c2c(c(C(N)=O)nn2-c2ccc(F)cc2)CC3)c1 [Example 237, 8-{[2-chloro-5-(dimethylamino)benzoyl]amino}-1-(4-fluorophenyl)-4,5-dihydro-1H-benzo[g]indazole-3-carboxamide] was tested, and the IC50 [4] was no more than 1000 nM.
